Results published in patent US8471005B2 (Cephalon, Inc., priority 2008, dated 2013).

Key:
[1] = biological target: T1, JAK2 (Homo sapiens, UniProt O60674); assay: Recombinant Human JAK2 Kinase Assay (TRF); type: biochemical; details: JAK2 Kinase Inhibition; read-out: JAK2 Potency
T1 construct: host or cells: baculovirus expression system
Method in brief: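 Europium-labelled PY100 antibody reported tyrosine phosphorylation of a Neutravidin-captured biotinyl 15-mer peptide by JAK2 (baculovirus-expressed, 15 ng/ml). Conditions: 20 mM HEPES pH 7.2, 0.2 μM ATP, 1 mM MnCl2, 0.1% BSA, DMSO 2.5% final, 20 min at room temperature.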

[2] = biological target: T2, ALK (Homo sapiens, UniProt Q9UM73); assay: ALK Kinase Assay (ELISA/TRF, PLC-γ substrate); type: biochemical; details: ALK Kinase Inhibition; read-out: ALK Potency
T2 construct: host or cells: baculovirus expression system
T2 sequence (Q9UM73 19-1620): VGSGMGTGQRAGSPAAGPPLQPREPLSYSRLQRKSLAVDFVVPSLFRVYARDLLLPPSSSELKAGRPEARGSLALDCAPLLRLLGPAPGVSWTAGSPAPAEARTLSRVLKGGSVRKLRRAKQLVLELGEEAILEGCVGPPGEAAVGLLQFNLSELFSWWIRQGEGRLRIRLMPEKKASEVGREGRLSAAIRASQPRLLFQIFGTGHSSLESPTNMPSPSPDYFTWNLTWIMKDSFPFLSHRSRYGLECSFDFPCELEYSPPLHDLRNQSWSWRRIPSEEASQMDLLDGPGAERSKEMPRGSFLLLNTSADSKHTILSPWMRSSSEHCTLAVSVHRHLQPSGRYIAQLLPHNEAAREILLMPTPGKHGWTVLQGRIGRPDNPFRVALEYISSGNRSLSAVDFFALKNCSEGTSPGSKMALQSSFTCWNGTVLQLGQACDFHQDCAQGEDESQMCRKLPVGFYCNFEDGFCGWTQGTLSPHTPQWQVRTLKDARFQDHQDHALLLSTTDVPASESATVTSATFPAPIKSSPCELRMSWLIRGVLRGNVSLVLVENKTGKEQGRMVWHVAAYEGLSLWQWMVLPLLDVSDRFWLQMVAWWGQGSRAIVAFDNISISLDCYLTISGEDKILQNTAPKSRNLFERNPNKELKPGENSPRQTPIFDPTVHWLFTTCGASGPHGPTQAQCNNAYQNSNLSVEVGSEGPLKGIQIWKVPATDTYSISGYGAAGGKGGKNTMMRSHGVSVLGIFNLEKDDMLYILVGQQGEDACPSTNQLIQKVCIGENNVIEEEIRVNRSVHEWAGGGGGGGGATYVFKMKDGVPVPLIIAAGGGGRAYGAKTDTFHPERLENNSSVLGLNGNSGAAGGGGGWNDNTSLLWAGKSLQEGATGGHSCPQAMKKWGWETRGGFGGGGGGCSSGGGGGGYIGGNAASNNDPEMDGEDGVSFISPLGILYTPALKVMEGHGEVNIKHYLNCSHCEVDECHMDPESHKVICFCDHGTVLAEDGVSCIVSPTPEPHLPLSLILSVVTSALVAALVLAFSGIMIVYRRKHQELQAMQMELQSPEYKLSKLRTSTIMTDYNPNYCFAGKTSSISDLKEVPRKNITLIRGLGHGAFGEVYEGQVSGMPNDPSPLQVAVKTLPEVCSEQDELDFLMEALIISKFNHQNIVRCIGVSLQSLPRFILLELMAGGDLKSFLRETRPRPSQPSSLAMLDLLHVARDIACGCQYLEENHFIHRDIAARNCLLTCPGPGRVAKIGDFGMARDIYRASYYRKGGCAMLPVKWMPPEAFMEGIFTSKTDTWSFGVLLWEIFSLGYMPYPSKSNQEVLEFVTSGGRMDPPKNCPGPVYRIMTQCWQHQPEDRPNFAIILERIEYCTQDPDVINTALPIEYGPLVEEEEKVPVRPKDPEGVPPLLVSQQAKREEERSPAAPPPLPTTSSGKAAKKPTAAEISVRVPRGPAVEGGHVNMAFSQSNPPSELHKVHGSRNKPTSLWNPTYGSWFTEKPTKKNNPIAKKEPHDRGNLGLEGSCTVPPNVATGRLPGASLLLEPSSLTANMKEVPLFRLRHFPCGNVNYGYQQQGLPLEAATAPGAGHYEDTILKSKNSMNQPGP
Method in brief: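 IC50 values derive from percent inhibition plotted against log10 compound concentration and fitted to a variable-slope sigmoidal equation. The underlying reaction used 30 ng/ml ALK acting on immobilized PLC-γ (10 μg/mL in TBS) at 37° C for 15 minutes, read with Eu-N1 PT66 antibody.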

T1 sequence (O60674 whole entry): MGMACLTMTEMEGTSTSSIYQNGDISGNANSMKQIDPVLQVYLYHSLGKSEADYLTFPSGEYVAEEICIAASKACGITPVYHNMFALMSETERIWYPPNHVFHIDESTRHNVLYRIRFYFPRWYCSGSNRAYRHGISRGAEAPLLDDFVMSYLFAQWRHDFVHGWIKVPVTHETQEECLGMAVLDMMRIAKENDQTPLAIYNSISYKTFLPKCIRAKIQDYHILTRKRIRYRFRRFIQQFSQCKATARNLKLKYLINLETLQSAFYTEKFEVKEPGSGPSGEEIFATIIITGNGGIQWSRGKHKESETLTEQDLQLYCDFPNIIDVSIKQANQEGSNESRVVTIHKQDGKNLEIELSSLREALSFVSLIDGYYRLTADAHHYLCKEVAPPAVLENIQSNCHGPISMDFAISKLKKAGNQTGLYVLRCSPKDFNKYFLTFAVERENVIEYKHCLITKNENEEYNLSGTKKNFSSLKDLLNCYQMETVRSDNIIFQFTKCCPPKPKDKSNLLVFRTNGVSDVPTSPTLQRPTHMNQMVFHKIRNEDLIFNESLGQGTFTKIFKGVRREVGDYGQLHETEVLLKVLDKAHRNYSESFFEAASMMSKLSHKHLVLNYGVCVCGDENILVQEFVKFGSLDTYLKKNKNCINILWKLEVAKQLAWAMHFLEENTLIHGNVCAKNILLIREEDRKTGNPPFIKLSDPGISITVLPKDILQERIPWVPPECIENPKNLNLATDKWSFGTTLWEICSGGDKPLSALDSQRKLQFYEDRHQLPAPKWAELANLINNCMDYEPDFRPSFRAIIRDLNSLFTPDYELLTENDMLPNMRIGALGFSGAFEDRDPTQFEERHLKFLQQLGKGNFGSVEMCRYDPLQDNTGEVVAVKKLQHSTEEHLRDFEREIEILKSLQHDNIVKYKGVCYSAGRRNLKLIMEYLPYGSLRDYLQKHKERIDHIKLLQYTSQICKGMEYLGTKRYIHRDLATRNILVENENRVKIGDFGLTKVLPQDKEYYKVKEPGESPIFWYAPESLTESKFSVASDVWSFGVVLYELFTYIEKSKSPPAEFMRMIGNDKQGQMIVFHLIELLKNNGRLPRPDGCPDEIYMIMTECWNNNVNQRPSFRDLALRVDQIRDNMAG

## COc1cc(N2CCCC(N3CCOCC3)C2)ccc1Nc1ncc2ccc(-c3ccccc3OC)n2n1 (stereo not shown) [Example 1444, [2-Methoxy-4-(3-morpholin-4-yl-piperidin-1-yl)-phenyl]-[7-(2-methoxy-phenyl)-pyrrolo[2,1-f][1,2,4]triazin-2-yl]-amine]
[1]
  IC50: 100 to 1000 nM
[2]
  IC50: < 100 nM

## COc1cc(N2CCCC(N3CC(C)OC(C)C3)C2)ccc1Nc1ncc2ccc(-c3ccccc3OC)n2n1 (stereo not shown) [Example 1445, {4-[3-(2,6-Dimethyl-morpholin-4-yl)-piperidin-1-yl]-2-methoxy-phenyl}-[7-(2-methoxy-phenyl)-pyrrolo[2,1-f][1,2,4]triazin-2-yl]-amine]
[1]
  IC50: 100 to 1000 nM
[2]
  IC50: < 100 nM

## COc1cc(N2CCC(N3CCOCC3)CC2)ccc1Nc1ncc2ccc(-c3ccccc3NS(C)(=O)=O)n2n1 [Example 1450, N-(2-{2-[2-Methoxy-4-(4-morpholin-4-yl-piperidin-1-yl)-phenylamino]-pyrrolo[2,1-f][1,2,4]triazin-7-yl}-phenyl)-methanesulfonamide]
[1]
  IC50: 100 to 1000 nM
[2]
  IC50: 100 to 1000 nM

## COc1cc(N2CCC(N3CCOCC3)CC2)ccc1Nc1ncc2ccc(-c3ccccc3OC(C)C)n2n1 [Example 1451, [7-(2-Isopropoxy-phenyl)-pyrrolo[2,1-f][1,2,4]triazin-2-yl]-[2-methoxy-4-(4-morpholin-4-yl-piperidin-1-yl)-phenyl]-amine]
[1]
  IC50: < 100 nM
[2]
  IC50: < 100 nM

## COc1ccccc1-c1ccc2cnc(Nc3ccc4c(c3OC)CCC(N3CCOCC3)CC4)nn12 (stereo not shown) [Example 1452, (1-Methoxy-7-morpholin-4-yl-6,7,8,9-tetrahydro-5H-benzo cyclohepten-2-yl)-[7-(2-methoxy-phenyl)-pyrrolo[2,1-f][1,2,4]triazin-2-yl]-amine]
[1]
  IC50: 100 to 1000 nM
[2]
  IC50: < 100 nM

## COc1cc(N2CCC(N3CCOCC3)CC2)ccc1Nc1ncc2ccc(-c3ccccc3N(C)S(C)(=O)=O)n2n1 [Example 1453, N-(2-{2-[2-Methoxy-4-(4-morpholin-4-yl-piperidin-1-yl)-phenylamino]-pyrrolo[2,1-f][1,2,4]triazin-7-yl}-phenyl)-N-methyl-methanesulfonamide]
[1]
  IC50: 100 to 1000 nM
[2]
  IC50: < 100 nM

## COc1cc(N2CCC(N3CCOCC3)CC2)ccc1Nc1ncc2ccc(-c3ccccc3C(C)=O)n2n1 [Example 1454, 1-(2-{2-[2-Methoxy-4-(4-morpholin-4-yl-piperidin-1-yl)-phenylamino]-pyrrolo[2,1-f][1,2,4]triazin-7-yl}-phenyl)-ethanone]
[1]
  IC50: 100 to 1000 nM
[2]
  IC50: < 100 nM

## COc1cc(N2CCC(N3CCOCC3)CC2)ccc1Nc1ncc2ccc(-c3ccccc3OC(F)(F)F)n2n1 [Example 1455, [2-Methoxy-4-(4-morpholin-4-yl-piperidin-1-yl)-phenyl]-[7-(2-trifluoromethoxy-phenyl)-pyrrolo[2,1-f][1,2,4]triazin-2-yl]-amine]
[1]
  IC50: < 100 nM
[2]
  IC50: < 100 nM

## CN(c1ccccc1-c1ccc2cnc(Nc3ccc(N4CCC(N5CCOCC5)CC4)cc3)nn12)S(C)(=O)=O [Example 1456, N-Methyl-N-(2-{2-[4-(4-morpholin-4-yl-piperidin-1-yl)-phenylamino]-pyrrolo[2,1-f][1,2,4]triazin-7-yl}-phenyl)-methanesulfonamide]
[1]
  IC50: < 100 nM
[2]
  IC50: < 100 nM

## COc1cc(N2CCN(C)CC2)ccc1Nc1ncc2ccc(-c3ccccc3N(C)S(C)(=O)=O)n2n1 [Example 1457, N-(2-{2-[2-Methoxy-4-(4-methyl-piperazin-1-yl)-phenylamino]-pyrrolo[2,1-f][1,2,4]triazin-7-yl}-phenyl)-N-methyl-methanesulfonamide]
[1]
  IC50: 100 to 1000 nM
[2]
  IC50: < 100 nM

## CCN(c1ccccc1-c1ccc2cnc(Nc3ccc(N4CCC(N5CCOCC5)CC4)cc3OC)nn12)S(C)(=O)=O [Example 1460, N-Ethyl-N-(2-{2-[2-methoxy-4-(4-morpholin-4-yl-piperidin-1-yl)-phenylamino]-pyrrolo[2,1-f][1,2,4]triazin-7-yl}-phenyl)-methanesulfonamide]
[1]
  IC50: < 100 nM
[2]
  IC50: < 100 nM

## COc1cc(N2CCC(N3CCOCC3)CC2)ccc1Nc1ncc2ccc(-c3ccccc3N(CC3CC3)S(C)(=O)=O)n2n1 [Example 1461, N-Cyclopropylmethyl-N-(2-{2-[2-methoxy-4-(4-morpholin-4-yl-piperidin-1-yl)-phenylamino]-pyrrolo[2,1-f][1,2,4]triazin-7-yl}-phenyl)-methanesulfonamide]
[1]
  IC50: < 100 nM
[2]
  IC50: < 100 nM

## COCCN(c1ccccc1-c1ccc2cnc(Nc3ccc(N4CCC(N5CCOCC5)CC4)cc3OC)nn12)S(C)(=O)=O [Example 1462, N-(2-Methoxy-ethyl)-N-(2-{2-[2-methoxy-4-(4-morpholin-4-yl-piperidin-1-yl)-phenylamino]-pyrrolo[2,1-f][1,2,4]triazin-7-yl}-phenyl)-methanesulfonamide]
[1]
  IC50: 100 to 1000 nM
[2]
  IC50: 100 to 1000 nM

## COc1cc(N2CCC(N3CCOCC3)CC2)ccc1Nc1ncc2ccc(-c3ccccc3N(CCF)S(C)(=O)=O)n2n1 [Example 1463, N-(2-Fluoro-ethyl)-N-(2-{2-[2-methoxy-4-(4-morpholin-4-yl-piperidin-1-yl)-phenylamino]-pyrrolo[2,1-f][1,2,4]triazin-7-yl}-phenyl)-methanesulfonamide]
[1]
  IC50: < 100 nM
[2]
  IC50: < 100 nM

## COc1cc(N2CCC(N3CCOCC3)CC2)ccc1Nc1ncc2ccc(-c3ccccc3C(F)(F)F)n2n1 [Example 1464, [2-Methoxy-4-(4-morpholin-4-yl-piperidin-1-yl)-phenyl]-[7-(2-trifluoromethyl-phenyl)-pyrrolo[2,1-f][1,2,4]triazin-2-yl]-amine]
[1]
  IC50: 100 to 1000 nM
[2]
  IC50: < 100 nM

## COc1cc(N2CCC(N3CCOCC3)CC2)ccc1Nc1ncc2ccc(-c3cccc(OC)c3OC)n2n1 [Example 1465, [7-(2,3-Dimethoxy-phenyl)-pyrrolo[2,1-f][1,2,4]triazin-2-yl]-[2-methoxy-4-(4-morpholin-4-yl-piperidin-1-yl)-phenyl]-amine]
[1]
  IC50: < 100 nM
[2]
  IC50: < 100 nM

## COc1cc(N2CCC(N3CCOCC3)CC2)ccc1Nc1ncc2ccc(-c3ccccc3Cl)n2n1 [Example 1466, [7-(2-Chloro-phenyl)-pyrrolo[2,1-f][1,2,4]triazin-2-yl]-[2-methoxy-4-(4-morpholin-4-yl-piperidin-1-yl)-phenyl]-amine]
[1]
  IC50: < 100 nM
[2]
  IC50: < 100 nM

## COc1cc(N2CCC(C)(N3CCOCC3)CC2)ccc1Nc1ncc2ccc(-c3ccccc3OC)n2n1 [Example 1467]
[1]
  IC50: < 100 nM
[2]
  IC50: < 100 nM

## COc1cc(N2CCC(C)(N3CCOCC3)CC2)ccc1Nc1ncc2ccc(-c3ccccc3N(C)S(C)(=O)=O)n2n1 [Example 1468, N-(2-{2-[2-Methoxy-4-(4-methyl-4-morpholin-4-yl-piperidin-1-yl)-phenylamino]-pyrrolo[2,1-f][1,2,4]triazin-7-yl}-phenyl)-N-methyl-methanesulfonamide]
[1]
  IC50: 100 to 1000 nM
[2]
  IC50: < 100 nM

## COc1cc(N2CCC(F)(F)CC2)ccc1Nc1ncc2ccc(-c3ccccc3N(C)S(C)(=O)=O)n2n1 [Example 1469, N-(2-{2-[4-(4,4-Difluoro-piperidin-1-yl)-2-methoxy-phenylamino]-pyrrolo[2,1-f][1,2,4]triazin-7-yl}-phenyl)-N-methyl-methanesulfonamide]
[1]
  IC50: 100 to 1000 nM
[2]
  IC50: < 100 nM

## COc1cc(N2CCC(F)(F)CC2)ccc1Nc1ncc2ccc(-c3ccccc3OC)n2n1 [Example 1470, [4-(4,4-Difluoro-piperidin-1-yl)-2-methoxy-phenyl]-[7-(2-methoxy-phenyl)-pyrrolo[2,1-f][1,2,4]triazin-2-yl]-amine]
[1]
  IC50: < 100 nM
[2]
  IC50: 100 to 1000 nM

## COc1cc(N2CCN(C3CCOCC3)CC2)ccc1Nc1ncc2ccc(-c3ccccc3N(C)S(C)(=O)=O)n2n1 [Example 1471, N-[2-(2-{2-Methoxy-4-[4-(tetrahydro-pyran-4-yl)-piperazin-1-yl]-phenylamino}-pyrrolo[2,1-f][1,2,4]triazin-7-yl)-phenyl]-N-methyl-methanesulfonamide]
[1]
  IC50: 100 to 1000 nM
[2]
  IC50: < 100 nM

## COc1cc(N2CCN(C3CCOCC3)CC2)ccc1Nc1ncc2ccc(-c3ccccc3OC)n2n1 [Example 1472, [7-(2-Methoxy-phenyl)-pyrrolo[2,1-f][1,2,4]triazin-2-yl]-{2-methoxy-4-[4-(tetrahydro-pyran-4-yl)-piperazin-1-yl]-phenyl}-amine]
[1]
  IC50: < 100 nM
[2]
  IC50: < 100 nM

## COc1cc(N2CCC(N3CCOCC3)CC2)ccc1Nc1ncc2ccc(-c3ccccc3F)n2n1 [Example 1473, [7-(2-Fluoro-phenyl)-pyrrolo[2,1-f][1,2,4]triazin-2-yl]-[2-methoxy-4-(4-morpholin-4-yl-piperidin-1-yl)-phenyl]-amine]
[1]
  IC50: < 100 nM
[2]
  IC50: < 100 nM

## COc1cc(N2CCC(N3CCC(F)(F)CC3)CC2)ccc1Nc1ncc2ccc(-c3ccccc3N(C)S(C)(=O)=O)n2n1 [Example 1474, N-(2-{2-[4-(4,4-Difluoro-[1,4′]bipiperidinyl-1′-yl)-2-methoxy-phenylamino]-pyrrolo[2,1-f][1,2,4]triazin-7-yl}-phenyl)-N-methyl-methanesulfonamide]
[1]
  IC50: 100 to 1000 nM
[2]
  IC50: < 100 nM

## COc1cc(N2CCC(N3CCC(F)(F)CC3)CC2)ccc1Nc1ncc2ccc(-c3ccccc3OC)n2n1 [Example 1475, [4-(4,4-Difluoro-[1,4′]bipiperidinyl-1′-yl)-2-methoxy-phenyl]-[7-(2-methoxy-phenyl)-pyrrolo[2,1-f][1,2,4]triazin-2-yl]-amine]
[1]
  IC50: 100 to 1000 nM
[2]
  IC50: < 100 nM
